From ChEMBL document CHEMBL1201862, “PubChem BioAssay data set” (2004)
Activity calls are given as the source filed them.

Key:
HEK293 [1] = assay: cells; assay type: functional, cell-based; details: Homo sapiens
[2] = target: T1, Nuclear receptor subfamily 0 group B member 1 (Homo sapiens, UniProt P51843); assay: Luminescence-based cell-based high throughput dose response assay for inhibitors of the orphan nuclear receptor subfamily 0, group B, member 1 (DAX1; NR0B1). [Related pubchem assays (depositor defined):AID504766, AID504790]; assay type: functional
T1 sequence (P51843 whole entry): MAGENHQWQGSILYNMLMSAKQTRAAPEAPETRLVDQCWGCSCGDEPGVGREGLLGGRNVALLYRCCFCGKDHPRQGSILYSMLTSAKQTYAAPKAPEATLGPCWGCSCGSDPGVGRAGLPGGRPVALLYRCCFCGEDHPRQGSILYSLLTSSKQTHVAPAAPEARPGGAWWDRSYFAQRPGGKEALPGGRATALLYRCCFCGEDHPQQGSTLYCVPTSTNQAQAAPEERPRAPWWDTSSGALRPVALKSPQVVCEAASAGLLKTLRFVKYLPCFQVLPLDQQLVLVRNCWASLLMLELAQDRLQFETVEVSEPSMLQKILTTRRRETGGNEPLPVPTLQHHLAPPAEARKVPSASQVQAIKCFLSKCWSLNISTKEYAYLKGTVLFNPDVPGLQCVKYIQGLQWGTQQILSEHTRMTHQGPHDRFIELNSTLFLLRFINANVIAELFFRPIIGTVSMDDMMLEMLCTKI

Escherichia coli = assay: microbe, parasite or virus in culture
[3] = target: Ras and Rab interactor 1/Tyrosine-protein kinase ABL1 (Homo sapiens, UniProt P00519+Q13671); assay type: functional;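 further: biochemical TR-FRET dose-response test measuring inhibition of binding between Rin1 and Abl proteins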
HEK293 [4] = assay: cells; details: Homo sapiens
HEK293 [5] = assay: cells; details: Homo sapiens; remark: listed apart in the source
[6] = target: T2, Mannose-6-phosphate isomerase (Homo sapiens, UniProt P34949); assay: inhibitors of human PMI, primary screen, biochemical, fluorescence intensity, coupled assay (AID 1209)
T2 sequence (P34949 whole entry): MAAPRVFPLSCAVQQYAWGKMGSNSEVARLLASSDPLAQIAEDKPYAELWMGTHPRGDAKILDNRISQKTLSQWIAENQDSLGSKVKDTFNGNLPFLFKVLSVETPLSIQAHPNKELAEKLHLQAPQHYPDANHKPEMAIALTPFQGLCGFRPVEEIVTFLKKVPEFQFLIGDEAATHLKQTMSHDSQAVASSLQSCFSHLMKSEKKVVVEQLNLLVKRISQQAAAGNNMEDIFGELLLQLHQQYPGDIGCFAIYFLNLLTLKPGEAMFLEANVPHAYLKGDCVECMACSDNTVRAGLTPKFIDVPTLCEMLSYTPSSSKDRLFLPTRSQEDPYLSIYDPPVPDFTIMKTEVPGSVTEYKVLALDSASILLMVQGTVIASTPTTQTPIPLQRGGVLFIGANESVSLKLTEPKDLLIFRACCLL

[7] = target: T2, Mannose-6-phosphate isomerase; assay: PMI enzyme inhibitors, confirmation, biochemical, fluorescence intensity (AID 1535)
Phosphomannomutase 2 = target: T3, Phosphomannomutase 2 (Homo sapiens, UniProt O15305); assay: Counter screen SAR assay for PMM2 inhibitors via a fluorescence intensity assay. [Related pubchem assays (depositor defined):AID1545, AID1574]
T3 sequence (O15305 whole entry): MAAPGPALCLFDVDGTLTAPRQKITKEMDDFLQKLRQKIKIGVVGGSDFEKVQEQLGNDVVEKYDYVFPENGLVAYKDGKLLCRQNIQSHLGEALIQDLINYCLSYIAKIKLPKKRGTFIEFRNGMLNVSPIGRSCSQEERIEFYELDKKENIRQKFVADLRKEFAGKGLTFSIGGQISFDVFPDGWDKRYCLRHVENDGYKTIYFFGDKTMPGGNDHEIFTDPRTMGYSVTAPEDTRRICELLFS

[8] = target: Intestinal-type alkaline phosphatase (Mus musculus, UniProt P24822); assay: PubChem AID 488785; assay type: functional
[9] = target: T4, Alkaline phosphatase, tissue-nonspecific isozyme (Homo sapiens, UniProt P05186); assay: TNAP enzyme inhibition by screening hits, dose response, selectivity assay for mouse IAP inhibitor project, biochemical, human TNAP, uHTS hits (AID 488906); assay type: functional
T4 sequence (P05186 whole entry): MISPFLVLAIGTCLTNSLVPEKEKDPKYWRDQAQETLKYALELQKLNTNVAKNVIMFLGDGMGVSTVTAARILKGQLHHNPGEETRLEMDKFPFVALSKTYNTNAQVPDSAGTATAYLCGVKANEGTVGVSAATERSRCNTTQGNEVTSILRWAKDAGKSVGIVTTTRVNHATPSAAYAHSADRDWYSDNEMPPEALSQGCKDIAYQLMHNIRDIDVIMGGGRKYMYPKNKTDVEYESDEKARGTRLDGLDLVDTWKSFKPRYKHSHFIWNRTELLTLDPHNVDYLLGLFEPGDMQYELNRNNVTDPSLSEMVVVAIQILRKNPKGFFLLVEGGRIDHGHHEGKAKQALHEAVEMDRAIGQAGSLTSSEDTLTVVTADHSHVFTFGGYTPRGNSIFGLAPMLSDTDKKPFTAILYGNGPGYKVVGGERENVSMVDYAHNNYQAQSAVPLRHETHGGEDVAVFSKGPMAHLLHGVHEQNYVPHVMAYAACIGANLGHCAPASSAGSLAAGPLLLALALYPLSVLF

[10] = target: Intestinal-type alkaline phosphatase (Homo sapiens, UniProt P09923); assay: inhibition of human intestinal alkaline phosphatase – biochemical, dose response (AID 488876); assay type: functional
[11] = target: Dual specificity protein kinase CLK1 (Homo sapiens, UniProt P49759); assay: CLK1 kinase inhibitors, off-target check, dose response, selectivity assay for Dyrk1A inhibitor project, biochemical, cherry-picked samples (AID 588811)
[12] = target: Glycogen synthase kinase-3 alpha (Homo sapiens, UniProt P49840); assay type: functional;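 further: GSK3A result taken from a broad kinome-wide kinase panel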
[13] = target: Calcium/calmodulin-dependent protein kinase type II subunit beta (Homo sapiens, UniProt Q13554); assay type: functional
[14] = target: Glycogen synthase kinase-3 beta (Homo sapiens, UniProt P49841); assay type: functional;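 further: value comes from a broad kinome profiling panel, with GSK3B as the panel member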
[15] = target: Dual specificity tyrosine-phosphorylation-regulated kinase 1A (Homo sapiens, UniProt Q13627); assay type: functional;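 further: measured against DYRK1A as one member of a broad kinome profiling panel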

Sequence of Calcium/calmodulin-dependent protein kinase type II subunit beta (Q13554 whole entry): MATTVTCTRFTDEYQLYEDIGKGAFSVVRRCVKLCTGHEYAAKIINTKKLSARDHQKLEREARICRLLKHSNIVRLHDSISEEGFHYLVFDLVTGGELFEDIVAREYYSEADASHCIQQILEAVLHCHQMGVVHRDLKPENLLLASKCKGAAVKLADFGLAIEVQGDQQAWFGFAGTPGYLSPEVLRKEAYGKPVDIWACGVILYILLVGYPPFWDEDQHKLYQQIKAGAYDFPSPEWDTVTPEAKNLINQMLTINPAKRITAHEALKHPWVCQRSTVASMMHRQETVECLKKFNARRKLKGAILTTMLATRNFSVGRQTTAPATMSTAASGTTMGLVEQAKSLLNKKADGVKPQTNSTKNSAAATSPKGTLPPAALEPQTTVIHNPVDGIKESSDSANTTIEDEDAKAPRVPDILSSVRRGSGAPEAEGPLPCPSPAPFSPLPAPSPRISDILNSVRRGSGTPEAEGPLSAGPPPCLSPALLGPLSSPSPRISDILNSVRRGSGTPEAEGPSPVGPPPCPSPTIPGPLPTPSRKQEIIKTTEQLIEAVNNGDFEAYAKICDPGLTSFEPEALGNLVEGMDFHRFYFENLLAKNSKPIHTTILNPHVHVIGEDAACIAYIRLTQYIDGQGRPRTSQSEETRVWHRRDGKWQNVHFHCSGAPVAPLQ
Sequence of Glycogen synthase kinase-3 beta (P49841 whole entry): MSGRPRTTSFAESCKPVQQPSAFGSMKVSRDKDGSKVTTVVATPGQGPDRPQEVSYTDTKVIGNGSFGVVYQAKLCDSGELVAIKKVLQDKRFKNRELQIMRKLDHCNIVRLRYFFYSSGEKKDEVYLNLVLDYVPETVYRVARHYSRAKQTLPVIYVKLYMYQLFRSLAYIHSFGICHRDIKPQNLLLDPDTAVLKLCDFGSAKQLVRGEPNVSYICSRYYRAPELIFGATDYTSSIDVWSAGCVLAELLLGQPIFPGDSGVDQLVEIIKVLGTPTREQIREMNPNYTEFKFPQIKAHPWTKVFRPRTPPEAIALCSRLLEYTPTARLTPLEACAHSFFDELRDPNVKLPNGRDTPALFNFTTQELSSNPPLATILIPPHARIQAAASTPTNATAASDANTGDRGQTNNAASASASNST
Sequence of Intestinal-type alkaline phosphatase (Homo sapiens, UniProt P09923) (P09923 whole entry): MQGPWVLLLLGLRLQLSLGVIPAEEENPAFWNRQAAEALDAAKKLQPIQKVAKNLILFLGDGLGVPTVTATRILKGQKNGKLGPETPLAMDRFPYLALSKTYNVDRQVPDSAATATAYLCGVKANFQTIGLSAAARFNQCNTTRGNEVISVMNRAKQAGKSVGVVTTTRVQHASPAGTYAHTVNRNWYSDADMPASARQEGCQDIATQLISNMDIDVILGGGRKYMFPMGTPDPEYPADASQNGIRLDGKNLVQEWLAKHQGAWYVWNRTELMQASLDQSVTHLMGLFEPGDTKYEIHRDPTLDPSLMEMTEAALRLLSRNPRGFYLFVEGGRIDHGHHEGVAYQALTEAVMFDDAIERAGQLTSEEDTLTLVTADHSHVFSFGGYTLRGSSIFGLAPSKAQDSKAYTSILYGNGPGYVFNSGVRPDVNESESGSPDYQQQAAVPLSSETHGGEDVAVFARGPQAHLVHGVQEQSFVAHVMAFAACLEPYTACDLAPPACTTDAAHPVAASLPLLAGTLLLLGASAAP
Sequence of Ras and Rab interactor 1/Tyrosine-protein kinase ABL1 (P00519 whole entry): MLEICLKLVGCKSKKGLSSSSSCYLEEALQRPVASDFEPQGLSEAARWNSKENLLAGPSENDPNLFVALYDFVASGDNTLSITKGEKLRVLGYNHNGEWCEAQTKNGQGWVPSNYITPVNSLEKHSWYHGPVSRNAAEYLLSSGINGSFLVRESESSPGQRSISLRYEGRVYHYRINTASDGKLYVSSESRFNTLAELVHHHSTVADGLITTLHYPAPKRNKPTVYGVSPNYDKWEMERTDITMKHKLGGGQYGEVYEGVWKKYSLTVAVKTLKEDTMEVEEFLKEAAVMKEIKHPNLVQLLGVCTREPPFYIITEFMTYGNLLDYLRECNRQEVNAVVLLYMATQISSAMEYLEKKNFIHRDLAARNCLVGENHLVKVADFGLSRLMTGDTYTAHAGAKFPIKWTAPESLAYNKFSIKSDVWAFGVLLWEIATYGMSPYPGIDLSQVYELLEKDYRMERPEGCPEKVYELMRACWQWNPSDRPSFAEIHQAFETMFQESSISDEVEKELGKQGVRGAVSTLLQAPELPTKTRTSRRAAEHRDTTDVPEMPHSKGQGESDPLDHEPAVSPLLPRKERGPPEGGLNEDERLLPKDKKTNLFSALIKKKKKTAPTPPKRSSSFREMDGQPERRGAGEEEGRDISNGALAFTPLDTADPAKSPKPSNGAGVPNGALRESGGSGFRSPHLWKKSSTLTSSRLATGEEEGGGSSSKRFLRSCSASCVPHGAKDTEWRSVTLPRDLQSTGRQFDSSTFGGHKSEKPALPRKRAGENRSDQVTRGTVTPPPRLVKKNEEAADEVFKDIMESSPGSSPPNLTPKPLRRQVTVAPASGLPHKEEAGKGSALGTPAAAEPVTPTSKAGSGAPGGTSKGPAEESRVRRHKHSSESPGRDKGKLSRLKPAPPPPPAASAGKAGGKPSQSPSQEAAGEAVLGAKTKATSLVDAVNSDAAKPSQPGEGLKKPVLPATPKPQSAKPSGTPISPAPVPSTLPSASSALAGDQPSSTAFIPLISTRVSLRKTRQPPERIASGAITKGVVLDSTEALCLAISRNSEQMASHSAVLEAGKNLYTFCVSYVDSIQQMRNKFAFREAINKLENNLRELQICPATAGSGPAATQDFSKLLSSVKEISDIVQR
Sequence of Ras and Rab interactor 1/Tyrosine-protein kinase ABL1 (Q13671 whole entry): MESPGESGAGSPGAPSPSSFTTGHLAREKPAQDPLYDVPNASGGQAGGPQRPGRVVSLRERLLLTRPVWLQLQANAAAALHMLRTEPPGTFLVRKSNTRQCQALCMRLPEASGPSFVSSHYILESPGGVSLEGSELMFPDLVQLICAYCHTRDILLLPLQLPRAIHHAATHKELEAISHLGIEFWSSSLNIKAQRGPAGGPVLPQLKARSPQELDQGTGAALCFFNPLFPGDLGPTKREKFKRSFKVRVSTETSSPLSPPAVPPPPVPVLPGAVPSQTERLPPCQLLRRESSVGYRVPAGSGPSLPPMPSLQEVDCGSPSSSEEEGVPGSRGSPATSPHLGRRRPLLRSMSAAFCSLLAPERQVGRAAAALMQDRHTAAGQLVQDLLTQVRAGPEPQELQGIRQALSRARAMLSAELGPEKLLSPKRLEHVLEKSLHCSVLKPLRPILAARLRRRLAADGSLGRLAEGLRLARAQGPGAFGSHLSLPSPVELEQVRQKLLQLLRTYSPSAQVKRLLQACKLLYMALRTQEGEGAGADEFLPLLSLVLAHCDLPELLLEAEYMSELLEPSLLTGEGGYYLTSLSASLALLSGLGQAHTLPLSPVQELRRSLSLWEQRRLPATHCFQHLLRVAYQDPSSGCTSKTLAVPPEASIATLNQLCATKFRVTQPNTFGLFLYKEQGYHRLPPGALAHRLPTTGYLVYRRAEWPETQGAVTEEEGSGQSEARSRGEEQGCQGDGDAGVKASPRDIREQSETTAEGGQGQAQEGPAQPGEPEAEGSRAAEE
Sequence of Dual specificity protein kinase CLK1 (P49759 whole entry): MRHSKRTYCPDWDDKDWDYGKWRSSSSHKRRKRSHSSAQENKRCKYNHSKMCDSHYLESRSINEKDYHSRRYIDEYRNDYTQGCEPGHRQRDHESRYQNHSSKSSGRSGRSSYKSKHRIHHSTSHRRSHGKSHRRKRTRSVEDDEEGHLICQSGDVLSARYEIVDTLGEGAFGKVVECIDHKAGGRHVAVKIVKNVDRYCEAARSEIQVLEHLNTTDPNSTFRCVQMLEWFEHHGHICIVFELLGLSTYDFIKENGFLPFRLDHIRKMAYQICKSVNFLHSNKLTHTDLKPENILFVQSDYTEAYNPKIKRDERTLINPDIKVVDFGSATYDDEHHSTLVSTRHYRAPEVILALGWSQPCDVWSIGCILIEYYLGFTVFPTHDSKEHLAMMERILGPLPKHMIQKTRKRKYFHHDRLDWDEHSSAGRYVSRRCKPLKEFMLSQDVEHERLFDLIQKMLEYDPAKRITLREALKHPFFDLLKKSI
Sequence of Glycogen synthase kinase-3 alpha (P49840 whole entry): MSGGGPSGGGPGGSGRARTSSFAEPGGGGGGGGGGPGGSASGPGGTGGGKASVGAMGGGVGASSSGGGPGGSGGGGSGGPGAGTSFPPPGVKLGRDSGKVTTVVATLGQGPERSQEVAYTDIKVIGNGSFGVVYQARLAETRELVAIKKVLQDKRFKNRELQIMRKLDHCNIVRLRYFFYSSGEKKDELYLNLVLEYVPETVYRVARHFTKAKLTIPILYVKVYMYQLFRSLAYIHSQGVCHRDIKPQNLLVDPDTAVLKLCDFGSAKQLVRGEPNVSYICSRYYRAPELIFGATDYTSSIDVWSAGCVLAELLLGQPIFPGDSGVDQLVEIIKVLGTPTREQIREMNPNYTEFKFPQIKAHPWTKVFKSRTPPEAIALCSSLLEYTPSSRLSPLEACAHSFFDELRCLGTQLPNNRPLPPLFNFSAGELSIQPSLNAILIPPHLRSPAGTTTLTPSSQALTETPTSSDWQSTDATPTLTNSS

Compound: O=C(NCc1ccco1)/C(=C\C=C\c1ccccc1)NC(=O)c1ccco1
- IC50 (HEK293 [1]): > 67.5 µM (inactive)
- IC50 [2]: > 67.5 µM (inactive)

Compound: C=CCC[C@H](Cc1ccc(F)cc1)C(=O)OC[C@@H](C)NC(=O)[C@H](CC=C)CC(=O)NCCO
- AC50 (Escherichia coli): > 150 µM (inactive)

Compound: CC[C@]12c3[nH]c4ccc(OC)cc4c3CCN1C(=O)C(CC(=O)NCC13C[C@H]4C[C@@H](C1)C[C@@H](C3)C4)C[C@@H]2C(=O)N1CCN(C(=O)c2ccco2)CC1 (some centres not stated)
- IC50 [3]: 4.2 µM (active)
- EC50 (HEK293 [4]): > 59.6 µM (inactive)
- EC50 (HEK293 [5]): > 59.6 µM (inactive)

Compound: O=C(CSc1nc[nH]n1)CSc1nc[nH]n1
- IC50 [6]: 12.7 µM (active)
- IC50 [7]: > 50 µM (inactive)
- IC50 (Phosphomannomutase 2): > 100 µM (inactive)
- IC50 [8]: 0.373 µM (active)
- IC50 [9]: 8.85 µM (active)
- IC50 [10]: 7.33 µM (active)

Compound: c1nc(NCC2CCCO2)c2cc(-c3ccc4c(c3)OCO4)ccc2n1 (configuration not stated)
- AC50 [11]: 0.0113 µM (active)

Compound: O=C1CN=C(c2cccc(Cl)c2)c2c(sc3c2CCCC3)N1
- Ki [12]: 3.98 µM (active)
- Ki [13]: 6.31 µM (active)
- Ki [14]: 3.16 µM (active)
- Ki [15]: 2.51 µM (active)
